From patent US4092420A, “Novel soft N-chloroamino alcohol derivatives exhibiting antibacterial activity” (INTERx Research Corporation, priority 1977, dated 1978)

Tests used:
S. aureus [1] = assay: Contact germicidal efficiency (sterilization time); type: cell-based, Staphylococcus aureus; settings: Example Y, pH 4.6, in presence of horse serum, 468 ppm (80 PPMCl+)
Method: CONTACT GERMICIDAL EFFICIENCY OF
(§1) ^a Time intervals screened 0.5, 1, 2, 3, 4 and 5 minutes.
(§2) ^a Time intervals screened 0.5, 1, 2, 3, 4, 5, 6, 7, 8, 9 and 10
(§3) ^a Time intervals screened 0.5, 1, 2, 3, 4, and 5 minutes.
(§4) ^b Time intervals screened 0.5, 1, 2, 3, 4, 5, 6, 7, 8, 9 and 10
(§5) Immediately preceding the screen, the compound is weighed and diluted with a buffer or other solvent to give the final concentration desired. The buffer or solvent chosen depends on the conditions of the screen and could be one of the following: 0.1 M NaOAc, pH 4.6; 0.1 M NaH2 PO4, pH 7.0; 0.1 M Na2 B4 O7, pH 8.8; 35% methanol in one of the aforementioned buffers; 10% Triton × 100 in buffer, etc.
(§6) The positive chlorine concentration of the test solution is then determined iodometrically.
Media used for the Screen are Nutrient Broth, BBL# 11479 and Nutrient Agar, BBL# 11472 prepared according to label directions. The broth is dispensed in 75 ml amounts of flasks for overnight cultures and in 5 ml amounts to culture tubes for subculturing during the Screen. Agar plates are prepared as usual. […]
A 0.2 ml portion of the overnight culture is inoculated into 5 ml of 0.9% NaCl for use in controls. […] The earliest subculture time at which no growth is present in the subculture tube is considered the endpoint and is recorded as that time, e.g., 7 minutes. […]

K. pneumoniae = assay: Minimal inhibitory concentration (MIC), Example V; type: cell-based; settings: Klebsiella pneumoniae
Method: MINIMAL INHIBITORY CONCENTRATION OF 2-AMINO-2-METHYL-1-PROPYL
^a Minimal inhibitory concentration expressed in parts per million
sequence inhibited the test organism at the higher concentrations.
(§7) THE ANTIBACTERIAL SCREEN - EXAMPLE V
Klebsiella pneumoniae ATCC# 10031
(§8) THE ANTIBACTERIAL SCREEN - EXAMPLES W - Z (Autotiter IV)
(§9) (a) Compounds. All compounds to be screened are weighed (approx. 10 mg) on the day preceding the test date. Each compound is solubilized on the day of assay in appropriate solvent and diluted automatically in the Autotiter IV with distilled water (buffer can be employed here also).
(§10) Bacteria: Staphylococcus aureas Smith (or 209), Escherichia coli AB 1932-1, 1100/B22 and Vogel, Streptococcus pyogenes C203 Salmonella typhimurium 14028, Bacillus subtilis 6051-1, Klebsiella pneumoniae 10031, Pseudomonas aeruginosa 9027, Bordetella bronchiseptica 4617 and Staphylococcus epidermidis 12228.
(§11) (c) Inocula. Prior to utilization in the Autotiter IV, all bacteria are cultured for 18-20 hr. (37° C) in tryptose phosphate broth (TP), except, S. pyogenes C203, which is cultured in Brain Heart Infusion broth plus 10% normal horse serum. Immediately prior to testing, each culture is adjusted to an optical density of 0.10 (650 nm), employing a Bausch & Lomb Spectronic 20, and diluted subsequently into double strength medium to approximately 2 × 10^5 viable organisms per ml.
(§12) 1. An automated injector system dispenses 0.05 ml of diluent (sterile H2 O or buffer) to all cups of the autotiter trays from rows 2 through 7.
(§13) 2. The loops (for sequential dilutions of the compounds are moistened by immersion into 70% ethyl alcohol. After removal of excess alcohol by blotting, the loops are moved to the first row of cups in the autotray containing 0.10 ml of the compound to be diluted and tested (usually, this initial concentration is 500 to 1000 mcg/ml, but can be varied upward or downward). The loops are lowered and sequentially transfer the diluted solutions of the compound through row 7.
(§14) Immediately after each dilution is made, each cup is automatically inoculated with 0.05 ml of the appropriate test organism. This inoculation derives from a second injector system containing the organism in double-strength medium. The total operation consists of the automatic dilution of a single compound in each of 8 rows of the Autotiter try.
(§15) After these operations, we reverse the tray and a second compound is diluted over the other one-half of the tray and inoculated, subsequently, with 8 organisms. Thus, for each Autotiter Tray, two compounds are screened against 8 different organisms at dilutions ranging from 1:2 to 1:128.
(§16) (e) Incubation. The inoculated Autotiter trays are incubated at 37° C for 18 - 20 hr. At the end of this period, each tray is examined for the presence or absence of growth (turbidity). The lowest concentration of the compound inhibiting growth is recorded as the minimal inhibitory concentration (MIC).

B. bronchiseptica = assay: Contact germicidal efficiency (sterilization time); type: cell-based, Bordetella bronchiseptica
Method: CONTACT GERMICIDAL EFFICIENCY OF N-CHLORAMINES AS A FUNCTION
as §1, §2, §3, §4, §5, §6
Media used for the Screen are Nutrient Broth, BBL# 11479 and Nutrient Agar, BBL# 11472 prepared according to label directions. The broth is dispensed in 75 ml amounts of flasks for overnight cultures and in 5 ml amounts to culture tubes for subculturing during the Screen. Agar plates are prepared as usual.
Overnight cultures are prepared by inoculating from stock cultures into the 75 ml flasks of nutrient broth and incubating for 15 hours at 37° C.
The iodometrically characterized test solution is dispensed in 5 ml amounts to seven small stoppered flasks. The organisms are screened one at a time as follows:
A 0.2 ml portion of the overnight culture is inoculated into 5 ml of 0.9% NaCl for use in controls. A 0.2 ml portion of the overnight culture is inoculated into a flask containing 5 ml of the test solution, an automatic timer is simultaneously triggered and the solution mixed. At time intervals of 30 seconds, 1, 2, 3, 4, 5, 6, 7, 8, 9, and 10 minutes a loopful of the inoculated solution is subcultured into 5 ml of sterile nutrient broth and mixed by a Vortex Genie Mixer, the high dilution serving to stop the action of the compound. At the end of the ten minute screen, the entire procedure is repeated for each of the remaining six organisms. All of the subculture tubes are incubated at 37° C and checked for signs of growth by turbidity at 24 hr., 48 hr., 3, 5, and 7 days. The earliest subculture time at which no growth is present in the subculture tube is considered the endpoint and is recorded as that time, e.g., 7 minutes.
The test solution is prepared and characterized as above but is made up at twice the concentration desired. The solution is diluted 1:1 with Rehydrated Tissue Culture Dessicated Horse Serum, Difco #5357-72 and dispensed in a 5 ml amount to a small flask. The mixture is incubated at Room Temperature for 30 minutes to allow denaturation of the compound by the serum and then screened as above.
The 5 ml mixture of serum and test solution are prepared in sequence to allow as close to 30 minutes as possible before the beginning of the screen of each organism.
as §10

S. aureus [2] = assay: Minimal inhibitory concentration (MIC), Example V; type: cell-based; settings: Staphylococcus aureus
Method: as §7, §8, §9, §10, §11, §12, §13, §14, §15, §16

P. aeruginosa = assay: Minimal inhibitory concentration (MIC), Example V; type: cell-based; settings: Pseudomonas aeruginosa
Method: as §7, §8, §9, §10, §11, §12, §13, §14, §15, §16

## CC(C)(COC(=O)C(C)(C)C)NCl [IV c, 2-N-Chloroamino-2-methyl-1-propyl 2,2-dimethylproprionate]
S. aureus [1]
  Sterilization Time: > 10 min
K. pneumoniae
  MIC: > 250 µg/mL
B. bronchiseptica; Example X, pH 4.6, no horse serum, IV c 404 ppm (69 PPMCl+), IV g 489 ppm (143 PPMCl+)
  Sterilization Time: 0.5 min
B. bronchiseptica; Example X, pH 7.0, no horse serum, IV c 1886 ppm (323 PPMCl+), IV g 409 ppm (120 PPMCl+)
  Sterilization Time: 1 min
B. bronchiseptica; Example X, pH 9.3, no horse serum, IV c 1704 ppm (292 PPMCl+), IV g 319 ppm (94 PPMCl+)
  Sterilization Time: 1 min
B. bronchiseptica; Example Y, pH 4.6, in presence of horse serum, 468 ppm (80 PPMCl+)
  Sterilization Time: > 10 min
S. aureus [2]
  MIC: > 250 µg/mL
P. aeruginosa
  MIC: > 250 µg/mL
